# Earlier results as cited in US20080317843A1, “NANOPARTICULATE FORMULATIONS OF MODAFINIL” (Elan Corporation plc, priority 2006, published 2008).
# Key:
# [1] = for share of trough concentration (Cminss) of circulating modafinil: after once daily dosing
# CYP2C19 = CYP2C19 (Homo sapiens, UniProt P33261)
# [2] = test system: receptors for norepinephrine; settings: pharmacologically relevant concentrations
# receptors for serotonin = settings: pharmacologically relevant concentrations
# receptors for GABA = settings: pharmacologically relevant concentrations
# receptors for adenosine = settings: pharmacologically relevant concentrations
# [3] = target: receptors for histamine-3 (Homo sapiens, UniProt Q9Y5N1); settings: pharmacologically relevant concentrations
# receptors for melatonin = settings: pharmacologically relevant concentrations
# [4] = test system: receptors for benzodiazepines; settings: pharmacologically relevant concentrations
# MAO-B = target: T1, MAO-B (Homo sapiens, UniProt P27338)
# T1 sequence (P27338 1-520): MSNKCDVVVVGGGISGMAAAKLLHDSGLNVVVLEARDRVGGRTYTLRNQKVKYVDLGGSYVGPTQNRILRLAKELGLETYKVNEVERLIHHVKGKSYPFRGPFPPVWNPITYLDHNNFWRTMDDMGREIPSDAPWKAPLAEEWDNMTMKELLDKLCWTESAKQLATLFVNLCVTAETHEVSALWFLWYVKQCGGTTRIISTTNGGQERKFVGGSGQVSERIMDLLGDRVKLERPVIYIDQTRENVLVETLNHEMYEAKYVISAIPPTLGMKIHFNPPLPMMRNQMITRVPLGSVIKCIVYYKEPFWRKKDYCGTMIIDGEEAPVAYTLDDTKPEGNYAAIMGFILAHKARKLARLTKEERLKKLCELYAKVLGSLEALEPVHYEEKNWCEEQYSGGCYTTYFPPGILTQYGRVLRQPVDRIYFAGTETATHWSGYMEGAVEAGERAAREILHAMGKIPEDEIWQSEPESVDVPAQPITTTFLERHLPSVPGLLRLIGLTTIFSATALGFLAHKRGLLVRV
# CYP3A4 = settings: chronic administration of modafinil 400 mg; substrates given orally
# CYP2C19, sequence (P33261 whole entry): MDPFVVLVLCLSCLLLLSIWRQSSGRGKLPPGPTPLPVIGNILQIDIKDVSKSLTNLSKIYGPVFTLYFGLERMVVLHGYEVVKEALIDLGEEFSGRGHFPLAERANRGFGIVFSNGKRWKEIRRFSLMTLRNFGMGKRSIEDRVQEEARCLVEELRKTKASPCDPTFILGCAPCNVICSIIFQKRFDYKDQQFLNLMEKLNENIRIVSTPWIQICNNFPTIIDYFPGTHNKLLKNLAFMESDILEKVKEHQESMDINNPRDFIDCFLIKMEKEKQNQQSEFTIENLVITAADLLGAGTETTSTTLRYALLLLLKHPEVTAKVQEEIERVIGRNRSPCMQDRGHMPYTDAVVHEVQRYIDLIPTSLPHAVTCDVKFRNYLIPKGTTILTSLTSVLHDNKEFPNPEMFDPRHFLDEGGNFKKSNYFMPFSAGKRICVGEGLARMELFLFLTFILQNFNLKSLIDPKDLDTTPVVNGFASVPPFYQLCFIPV
# receptors for histamine-3, sequence (Q9Y5N1 whole entry): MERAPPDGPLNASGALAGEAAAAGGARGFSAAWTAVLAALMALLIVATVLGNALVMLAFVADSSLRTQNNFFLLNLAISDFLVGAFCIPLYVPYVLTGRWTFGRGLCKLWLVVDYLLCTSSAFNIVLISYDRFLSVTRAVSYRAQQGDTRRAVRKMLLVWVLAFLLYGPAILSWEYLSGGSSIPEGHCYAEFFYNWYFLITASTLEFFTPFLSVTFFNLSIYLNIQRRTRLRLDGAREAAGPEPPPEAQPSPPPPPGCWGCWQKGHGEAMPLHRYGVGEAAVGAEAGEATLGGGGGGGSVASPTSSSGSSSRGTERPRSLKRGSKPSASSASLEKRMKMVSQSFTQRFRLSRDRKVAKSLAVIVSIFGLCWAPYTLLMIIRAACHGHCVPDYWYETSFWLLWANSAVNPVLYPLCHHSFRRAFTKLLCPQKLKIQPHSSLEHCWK
smiles,measurement,setting,value
"NC(=O)C[S+]([O-])C(c1ccccc1)c1ccccc1 (single isomer, unassigned) [d-isomer]",share of trough concentration (Cminss) of circulating modafinil,[1],10%
"O=C(C[S+]([O-])C(c1ccccc1)c1ccccc1)NO (centres unmarked) [Adrafinil, 2-(diphenylmethyl) sulfinyl acetohydroxamic acid]",solubility in acetone,,sparingly to slightly soluble
same,solubility in cyclohexane,,practically insoluble
same,solubility in methanol,,sparingly to slightly soluble
same,solubility in water,,practically insoluble
NC(=O)CS(=O)(=O)C(c1ccccc1)c1ccccc1 [modafinil sulfone],inhibition of CYP2C19,CYP2C19,reversible inhibitors
"NC(=O)C[S@@+]([O-])C(c1ccccc1)c1ccccc1 (single isomer, unassigned) [l-isomer]",share of trough concentration (Cminss) of circulating modafinil,[1],90%
same,total exposure relative to the d-isomer,[1]; at steady state,approximately three times
same,half-life relative to the d-isomer,[1]; humans,approximately three times
"NC(=O)C[S+]([O-])C(c1ccccc1)c1ccccc1 (centres unmarked) [modafinil, 2-[(diphenylmethyl)sulfinyl]acetamide]",binding to receptors for norepinephrine,[2],does not bind
same,binding to receptors for serotonin,receptors for serotonin,does not bind
same,binding to receptors for GABA,receptors for GABA,does not bind
same,binding to receptors for adenosine,receptors for adenosine,does not bind
same,binding to receptors for histamine-3,[3],does not bind
same,binding to receptors for melatonin,receptors for melatonin,does not bind
same,binding to receptors for benzodiazepines,[4],does not bind
same,inhibition of the activity of MAO-B,MAO-B,does not inhibit
same,inhibition of the activities of phosphodiesterases II-V,phosphodiesterases II-V,does not inhibit
same,effective elimination half-life,[1]; after multiple doses,about 15 hours
same,decrease in oral clearance (CL/F),"[1]; single dose 200 mg, 12 subjects mean age 63 years vs matched younger subjects",~20%
same,delay of absorption and (tmax) if taken with food,[1]; with food,delayed by approximately one hour
same,effect of food on overall bioavailability,[1]; with food,no effect
same,solubility in acetone,,sparingly to slightly soluble
same,aqueous insolubility,aqueous,< 1000 µg/mL
same,solubility in cyclohexane,,practically insoluble
same,solubility in methanol,,sparingly to slightly soluble
same,solubility in water,,practically insoluble
same,inhibition of CYP2C19,CYP2C19,reversible inhibitors
same,"systemic exposure to two CYP3A4 substrates, ethinyl estradiol, and triazolam",CYP3A4,decrease
